In PMC10046369, “Low-Affinity/High-Selectivity Dopamine Transport Inhibition Sufficient to Rescue Cognitive Functions in the Aging Rat” (Biomolecules, 2023):

What was measured:
Experiment in all cases: biochemical
Design in all cases: KINOMEscan competition binding panel, per cent of control
Conditions in all cases: read-out: %Ctrl @ 2800nM
[1] = target: T1, ABL1(T315I)-phosphorylated (Homo sapiens, UniProt P00519, T315I)
T1 construct: phosphorylated
Method: (§1) A panel of binding assays covering 450 human kinases and disease-relevant mutations was performed by DiscoverX (KINOMEscan®, Freemont, CA, USA) according to the standard and validated protocol defined by the contractor. […] Kinase binding assays This study was outsourced to DiscoverX (KINOMEscan®, Freemont, CA, USA) and is compliant with the corresponding project BUY004-01-p-00001. […] Results are reported as percent control (% Ctrl), where lower numbers indicate stronger hits in the matrix on the following page(s). %Ctrl calculation: ((test compound signal-positive control signal) / (negative control signal – positive control signal)) x 100.

[2] = target: CAMK1G (Homo sapiens, UniProt Q96NX5)
Method: as §1

[3] = target: CLK1 (Homo sapiens, UniProt P49759)
Method: as §1

[4] = target: CSK (Homo sapiens, UniProt P41240)
Method: as §1

[5] = target: DAPK1 (Homo sapiens, UniProt P53355)
Method: as §1

[6] = target: DDR1 (Homo sapiens, UniProt Q08345)
Method: as §1

[7] = target: FLT3(N841I) (Homo sapiens, UniProt P36888, N841I)
Method: as §1

[8] = target: FRK (Homo sapiens, UniProt P42685)
Method: as §1

[9] = target: T2, GCN2(Kin.Dom.2,S808G) (Homo sapiens, UniProt Q9P2K8, S808G)
T2 construct: gene EIF2AK4; Kin.Dom.2
Method: as §1

[10] = target: HIPK2 (Homo sapiens, UniProt Q9H2X6)
Method: as §1

[11] = target: HIPK3 (Homo sapiens, UniProt Q9H422)
Method: as §1

[12] = target: IRAK1 (Homo sapiens, UniProt P51617)
Method: as §1

[13] = target: KIT(D816V) (Homo sapiens, UniProt P10721, D816V)
Method: as §1

[14] = target: MAP4K2 (Homo sapiens, UniProt Q12851)
Method: as §1

[15] = target: MET(M1250T) (Homo sapiens, UniProt P08581, M1250T)
Method: as §1

[16] = target: MUSK (Homo sapiens, UniProt O15146)
Method: as §1

[17] = target: PIK3CA(E545K) (Homo sapiens, UniProt P42336, E545K)
Method: as §1

[18] = target: PIK3CB (Homo sapiens, UniProt P42338)
Method: as §1

[19] = target: PIK3CD (Homo sapiens, UniProt O00329)
Method: as §1

[20] = target: PIM2 (Homo sapiens, UniProt Q9P1W9)
Method: as §1

[21] = target: PRKCH (Homo sapiens, UniProt P24723)
Method: as §1

[22] = target: PRKX (Homo sapiens, UniProt P51817)
Method: as §1

[23] = target: SGK2 (Homo sapiens, UniProt Q9HBY8)
Method: as §1

[24] = target: T3, SgK110 (Homo sapiens, UniProt P0C264)
T3 construct: gene SBK3
Method: as §1

[25] = target: T4, TAK1 (Homo sapiens, UniProt O43318)
T4 construct: gene MAP3K7
Method: as §1

[26] = target: TLK1 (Homo sapiens, UniProt Q9UKI8)
Method: as §1

Chain of KIT(D816V) (P10721 whole entry D816V): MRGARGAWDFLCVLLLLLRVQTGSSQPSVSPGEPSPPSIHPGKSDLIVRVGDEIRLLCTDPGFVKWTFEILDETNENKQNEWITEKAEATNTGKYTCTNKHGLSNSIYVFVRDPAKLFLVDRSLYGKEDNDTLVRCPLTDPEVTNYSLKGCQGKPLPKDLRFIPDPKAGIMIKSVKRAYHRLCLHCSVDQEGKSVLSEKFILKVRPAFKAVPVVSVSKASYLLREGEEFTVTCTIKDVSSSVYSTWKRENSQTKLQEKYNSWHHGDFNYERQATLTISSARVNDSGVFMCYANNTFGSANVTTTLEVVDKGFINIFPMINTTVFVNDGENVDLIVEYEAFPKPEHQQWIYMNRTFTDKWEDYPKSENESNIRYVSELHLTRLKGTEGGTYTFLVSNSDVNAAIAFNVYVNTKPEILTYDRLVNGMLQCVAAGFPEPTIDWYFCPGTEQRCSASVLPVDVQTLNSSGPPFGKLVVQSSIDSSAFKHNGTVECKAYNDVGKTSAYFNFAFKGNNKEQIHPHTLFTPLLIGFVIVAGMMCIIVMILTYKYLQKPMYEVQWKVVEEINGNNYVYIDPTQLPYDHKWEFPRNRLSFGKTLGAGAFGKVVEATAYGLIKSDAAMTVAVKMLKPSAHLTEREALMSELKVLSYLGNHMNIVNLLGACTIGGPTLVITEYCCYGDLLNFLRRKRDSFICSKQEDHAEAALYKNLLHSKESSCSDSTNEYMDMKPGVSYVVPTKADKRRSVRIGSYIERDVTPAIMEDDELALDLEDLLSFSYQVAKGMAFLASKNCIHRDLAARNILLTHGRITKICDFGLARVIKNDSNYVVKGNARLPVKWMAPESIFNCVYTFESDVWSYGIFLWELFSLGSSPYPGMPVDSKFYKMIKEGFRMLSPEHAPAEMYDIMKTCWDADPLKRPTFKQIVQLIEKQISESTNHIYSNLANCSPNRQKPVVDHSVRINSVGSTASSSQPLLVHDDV
Chain of CLK1 (P49759 whole entry): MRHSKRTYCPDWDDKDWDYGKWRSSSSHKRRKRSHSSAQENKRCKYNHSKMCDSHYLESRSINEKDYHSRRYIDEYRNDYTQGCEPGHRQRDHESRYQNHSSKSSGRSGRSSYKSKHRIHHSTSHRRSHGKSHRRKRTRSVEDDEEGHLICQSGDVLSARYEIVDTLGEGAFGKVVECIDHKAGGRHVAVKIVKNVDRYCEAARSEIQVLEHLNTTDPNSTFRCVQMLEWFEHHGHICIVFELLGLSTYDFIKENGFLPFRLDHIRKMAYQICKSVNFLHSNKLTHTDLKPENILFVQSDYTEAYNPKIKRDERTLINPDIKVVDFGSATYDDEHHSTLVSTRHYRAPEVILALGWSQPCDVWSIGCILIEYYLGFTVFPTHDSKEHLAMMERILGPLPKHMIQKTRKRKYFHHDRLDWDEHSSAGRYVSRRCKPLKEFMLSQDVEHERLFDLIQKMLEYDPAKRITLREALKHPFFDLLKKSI
Chain of PRKCH (P24723 whole entry): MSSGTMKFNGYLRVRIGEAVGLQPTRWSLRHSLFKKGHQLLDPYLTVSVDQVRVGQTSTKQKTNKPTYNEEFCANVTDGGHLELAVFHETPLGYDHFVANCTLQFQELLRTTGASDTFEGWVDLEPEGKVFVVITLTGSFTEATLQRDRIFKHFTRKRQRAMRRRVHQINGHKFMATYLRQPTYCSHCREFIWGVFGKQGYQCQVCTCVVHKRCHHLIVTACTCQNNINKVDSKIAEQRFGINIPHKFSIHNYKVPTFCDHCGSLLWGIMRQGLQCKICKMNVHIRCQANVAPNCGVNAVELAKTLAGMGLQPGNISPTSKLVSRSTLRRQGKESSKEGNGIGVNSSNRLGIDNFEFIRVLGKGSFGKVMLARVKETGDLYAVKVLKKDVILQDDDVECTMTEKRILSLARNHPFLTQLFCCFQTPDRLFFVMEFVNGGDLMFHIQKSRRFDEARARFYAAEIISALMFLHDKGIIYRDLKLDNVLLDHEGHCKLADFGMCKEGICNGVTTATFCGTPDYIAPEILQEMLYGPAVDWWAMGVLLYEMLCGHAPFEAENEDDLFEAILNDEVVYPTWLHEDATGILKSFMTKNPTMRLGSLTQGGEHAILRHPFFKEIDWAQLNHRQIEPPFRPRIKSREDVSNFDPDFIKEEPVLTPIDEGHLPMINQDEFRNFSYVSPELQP
Chain of MET(M1250T) (P08581 whole entry M1250T): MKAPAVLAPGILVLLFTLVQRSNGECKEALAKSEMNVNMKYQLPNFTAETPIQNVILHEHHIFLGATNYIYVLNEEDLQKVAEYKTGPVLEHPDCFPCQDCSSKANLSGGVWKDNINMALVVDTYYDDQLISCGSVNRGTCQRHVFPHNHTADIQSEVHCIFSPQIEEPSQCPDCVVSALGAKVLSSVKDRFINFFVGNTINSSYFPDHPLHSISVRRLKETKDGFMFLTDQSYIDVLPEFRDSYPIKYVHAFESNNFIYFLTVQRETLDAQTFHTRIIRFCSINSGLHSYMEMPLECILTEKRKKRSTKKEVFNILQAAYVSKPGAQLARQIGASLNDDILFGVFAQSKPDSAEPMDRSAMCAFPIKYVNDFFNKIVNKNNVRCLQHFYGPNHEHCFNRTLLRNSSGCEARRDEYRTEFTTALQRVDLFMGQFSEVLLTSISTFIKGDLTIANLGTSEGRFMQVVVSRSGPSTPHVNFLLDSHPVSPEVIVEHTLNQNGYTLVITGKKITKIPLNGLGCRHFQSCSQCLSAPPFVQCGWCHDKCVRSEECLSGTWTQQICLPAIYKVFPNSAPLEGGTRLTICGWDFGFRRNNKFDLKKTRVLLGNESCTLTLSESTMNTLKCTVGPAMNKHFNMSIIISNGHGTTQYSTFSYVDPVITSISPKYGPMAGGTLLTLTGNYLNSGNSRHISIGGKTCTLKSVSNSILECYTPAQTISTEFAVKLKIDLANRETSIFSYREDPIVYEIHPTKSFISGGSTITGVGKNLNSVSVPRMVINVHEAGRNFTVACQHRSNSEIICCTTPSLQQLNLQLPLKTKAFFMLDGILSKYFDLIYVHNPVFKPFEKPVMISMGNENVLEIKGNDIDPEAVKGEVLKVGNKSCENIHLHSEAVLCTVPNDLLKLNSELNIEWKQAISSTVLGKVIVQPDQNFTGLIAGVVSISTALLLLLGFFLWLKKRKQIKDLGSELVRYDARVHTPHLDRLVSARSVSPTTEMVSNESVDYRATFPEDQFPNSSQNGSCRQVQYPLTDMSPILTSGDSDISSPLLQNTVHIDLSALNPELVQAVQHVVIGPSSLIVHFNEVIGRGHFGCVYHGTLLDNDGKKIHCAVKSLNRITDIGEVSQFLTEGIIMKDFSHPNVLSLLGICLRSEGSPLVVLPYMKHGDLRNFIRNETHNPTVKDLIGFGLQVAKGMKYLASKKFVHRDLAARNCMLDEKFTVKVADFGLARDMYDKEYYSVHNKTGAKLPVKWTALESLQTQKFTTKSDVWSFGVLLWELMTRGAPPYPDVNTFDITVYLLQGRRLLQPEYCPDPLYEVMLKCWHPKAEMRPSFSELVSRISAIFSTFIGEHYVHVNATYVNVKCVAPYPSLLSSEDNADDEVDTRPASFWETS
T4 sequence (O43318 whole entry): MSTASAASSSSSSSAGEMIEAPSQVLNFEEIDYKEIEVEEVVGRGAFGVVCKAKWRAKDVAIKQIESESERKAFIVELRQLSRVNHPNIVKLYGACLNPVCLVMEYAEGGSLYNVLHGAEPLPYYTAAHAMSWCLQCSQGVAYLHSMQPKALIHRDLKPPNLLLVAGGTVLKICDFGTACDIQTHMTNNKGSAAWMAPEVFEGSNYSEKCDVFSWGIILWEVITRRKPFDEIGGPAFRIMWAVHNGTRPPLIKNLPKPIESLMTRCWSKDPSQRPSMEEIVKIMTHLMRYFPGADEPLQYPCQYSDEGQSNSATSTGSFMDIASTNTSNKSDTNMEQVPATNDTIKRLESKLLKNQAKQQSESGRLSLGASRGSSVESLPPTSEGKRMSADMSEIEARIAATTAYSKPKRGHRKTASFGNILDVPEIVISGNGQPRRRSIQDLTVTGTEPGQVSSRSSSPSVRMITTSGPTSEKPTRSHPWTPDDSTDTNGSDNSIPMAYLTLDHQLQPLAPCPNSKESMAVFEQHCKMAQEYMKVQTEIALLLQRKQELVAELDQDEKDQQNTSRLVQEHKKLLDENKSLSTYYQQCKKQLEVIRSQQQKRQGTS
Chain of SGK2 (Q9HBY8 whole entry): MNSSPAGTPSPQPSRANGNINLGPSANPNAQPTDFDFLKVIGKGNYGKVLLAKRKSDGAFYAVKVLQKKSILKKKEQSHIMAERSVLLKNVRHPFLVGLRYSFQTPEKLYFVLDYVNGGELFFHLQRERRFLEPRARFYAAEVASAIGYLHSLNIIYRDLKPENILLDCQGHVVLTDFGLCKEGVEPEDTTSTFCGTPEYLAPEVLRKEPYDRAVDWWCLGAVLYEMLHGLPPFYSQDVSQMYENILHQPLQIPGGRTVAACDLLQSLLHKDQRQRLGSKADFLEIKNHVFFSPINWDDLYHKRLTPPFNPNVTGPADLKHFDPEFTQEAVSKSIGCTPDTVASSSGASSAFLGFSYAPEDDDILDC
Chain of CSK (P41240 whole entry): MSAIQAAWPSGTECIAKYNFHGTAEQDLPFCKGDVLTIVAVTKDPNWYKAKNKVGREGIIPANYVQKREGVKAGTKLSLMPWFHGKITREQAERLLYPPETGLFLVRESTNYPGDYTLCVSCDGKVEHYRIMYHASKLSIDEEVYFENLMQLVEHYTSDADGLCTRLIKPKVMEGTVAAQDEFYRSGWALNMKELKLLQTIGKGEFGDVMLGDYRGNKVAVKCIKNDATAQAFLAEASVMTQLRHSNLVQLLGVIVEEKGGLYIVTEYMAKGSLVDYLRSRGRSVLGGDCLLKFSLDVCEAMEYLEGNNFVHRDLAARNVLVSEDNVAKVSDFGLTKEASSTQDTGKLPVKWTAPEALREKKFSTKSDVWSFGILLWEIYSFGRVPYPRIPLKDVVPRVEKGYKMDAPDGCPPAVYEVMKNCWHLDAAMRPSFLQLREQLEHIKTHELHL

[O-][S@@+](Cc1cncs1)C(c1ccccc1)c1ccccc1 [S-CE-123, (S)-5-((Benzhydrylsulfinyl)Methyl)Thiazole]
remaining binding at 2.8 µM [1]: 98%
remaining binding at 2.8 µM [2]: 82%
remaining binding at 2.8 µM [3]: 96%
remaining binding at 2.8 µM [4]: 98%
remaining binding at 2.8 µM [5]: 91%
remaining binding at 2.8 µM [6]: 100%
remaining binding at 2.8 µM [7]: 91%
remaining binding at 2.8 µM [8]: 96%
remaining binding at 2.8 µM [9]: 100%
remaining binding at 2.8 µM [10]: 100%
remaining binding at 2.8 µM [11]: 91%
remaining binding at 2.8 µM [12]: 91%
remaining binding at 2.8 µM [13]: 97%
remaining binding at 2.8 µM [14]: 100%
remaining binding at 2.8 µM [15]: 99%
remaining binding at 2.8 µM [16]: 100%
remaining binding at 2.8 µM [17]: 82%
remaining binding at 2.8 µM [18]: 93%
remaining binding at 2.8 µM [19]: 86%
remaining binding at 2.8 µM [20]: 100%
remaining binding at 2.8 µM [21]: 100%
remaining binding at 2.8 µM [22]: 100%
remaining binding at 2.8 µM [23]: 100%
remaining binding at 2.8 µM [24]: 72%
remaining binding at 2.8 µM [25]: 71%
remaining binding at 2.8 µM [26]: 91%
